Data reported in ChEMBL document CHEMBL1128101, “Cycloproctolin and [-Methyl-l-Tyr]-proctolin are potent antagonists of proctolin-induced inositol phosphate production in locust foregut homogenates” (1995).
Where a SMILES comes first, the peptide text is derived from it.

How the values were obtained:
Assay type in all cases: functional
Schistocerca gregaria [1] = assay: Tested for dose dependent release of inositol phosphate (InsP3) at 1 uM
Schistocerca gregaria [2] = assay: Tested for dose dependent release of inositol phosphate (InsP4) at 10 nM
Schistocerca gregaria [3] = assay: Tested for dose dependent release of inositol phosphate (InsP4) at 1 uM
Schistocerca gregaria [4] = assay: Tested for dose dependent release of inositol phosphate (InsP3) at 10 nM
Schistocerca gregaria [5] = assay: Tested for dose dependent release of inositol phosphate (InsP4) at 0.5 uM
Schistocerca gregaria [6] = assay: Tested for dose dependent release of inositol phosphate (InsP3) at 0.5 uM
Schistocerca gregaria [7] = assay: Tested for dose dependent release of inositol phosphate (InsP3) at 1 uM in the presence of compound 1 (0.5 uM)
Schistocerca gregaria [8] = assay: Tested for dose dependent release of inositol phosphate (InsP4) at 1 uM in the presence of compound 1 (0.5 uM)

| Compound | Increase in DPM (Schistocerca gregaria [1]) | Increase in DPM (Schistocerca gregaria [2]) | Increase in DPM (Schistocerca gregaria [3]) | Increase in DPM (Schistocerca gregaria [4]) | Increase in DPM (Schistocerca gregaria [5]) | Increase in DPM (Schistocerca gregaria [6]) | Increase in DPM (Schistocerca gregaria [7]) | Increase in DPM (Schistocerca gregaria [8]) |
| --- | --- | --- | --- | --- | --- | --- | --- | --- |
| CC(C)C[C@@H](NC(=O)[C@@](C)(Cc1ccc(O)cc1)NC(=O)[C@@H](N)CCCN=C(N)N)C(=O)N1CCC[C@@H]1C(=O)N[C@H](C(=O)O)[C@H](C)O | 400 (mg of protein)-1 | 250 (mg of protein)-1 | 250 (mg of protein)-1 | 500 (mg of protein)-1 |  |  |  |  |
| CC(C)C[C@@H]1NC(=O)[C@H](Cc2ccc(O)cc2)NC(=O)[C@H](CCCN=C(N)N)NC(=O)[C@H]([C@@H](C)O)NC(=O)[C@@H]2CCCN2C1=O (HELM PEPTIDE1{L.P.T.R.Y}$PEPTIDE1,PEPTIDE1,1:R1-5:R2$$$V2.0) | 500 (mg of protein)-1 | 750 (mg of protein)-1 | 300 (mg of protein)-1 | 1200 (mg of protein)-1 |  |  |  |  |
| H-RYLPT-OH |  | 1100 (mg of protein)-1 |  | 1250 (mg of protein)-1 | 1600 (mg of protein)-1 | 3400 (mg of protein)-1 |  |  |
| CC(C)C[C@H](NC(=O)[C@H](Cc1ccc(O)cc1)N(C)C(=O)[C@@H](N)CCCN=C(N)N)C(=O)N1CCC[C@H]1C(=O)N[C@H](C(=O)O)[C@@H](C)O (HELM PEPTIDE1{R.[meY].L.P.T}$$$$V2.0) |  |  |  |  |  |  | 3600 (mg of protein)-1 | 1500 (mg of protein)-1 |
